Measurements reported in EPA's ToxValDB 9.5 (doi:10.2903/j.efsa.2010.1337).

Test system: Rattus norvegicus
Details: chronic; duration: 2 years
`C=O` [Formaldehyde] showed an NOEL of 15 mg/kg-day. With `SCS` [Methanedithiol] the NOEL was 15 mg/kg-day.

Same assay, conditions: chronic; duration: 91 days
`CCC1SSC(CC)S1` (stereo not drawn) [3,5-Diethyl-1,2,4-trithiolane] showed an NOEL of 1.9 mg/kg-day. `CC1SSC(C)S1` (stereo not drawn) [3,5-Dimethyl-1,2,4-trithiolane] gave an NOEL of 1.9 mg/kg-day.

Same assay, conditions: short-term; duration: 28 days
With `CC=O` [Acetaldehyde] the NOEL was 125 mg/kg-day. Compound `CC(S)S` [Ethane-1,1-dithiol] has an NOEL of 125 mg/kg-day. `C=CCSC[C@H](N)C(=O)O` [S-Allylcysteine] gave an NOEL of 250 mg/kg-day.

Same assay, conditions: subchronic; duration: 90 days
Work on `CC1SCCSS1` (stereo not drawn) [1,2,4-Trithiane, 3-methyl-] yielded an NOEL of 0.3 mg/kg-day. With `Cc1ccccc1S` [2-Methylbenzenethiol] the NOEL was 0.51 mg/kg-day. With `C=CCSSCCC` [Allyl propyl disulfide] the NOEL was 4.6 mg/kg-day. In the case of `CC(S)c1ccccc1` (stereo not drawn) [Benzenemethanethiol, .alpha.-methyl-], the NOEL is reported as 0.43 mg/kg-day. In the case of `Cc1cccc(C)c1S` [Benzenethiol, 2,6-dimethyl-], the NOEL is reported as 0.43 mg/kg-day. `COc1ccccc1S` [Benzenethiol, 2-methoxy-] showed an NOEL of 0.51 mg/kg-day. In the case of `C=CCSSSCC=C` [Diallyl trisulfide], the NOEL is reported as 4.6 mg/kg-day. `CSCS` [Methylthiomethylmercaptan] gave an NOEL of 0.3 mg/kg-day.

Same assay, conditions: subchronic; duration: 90 days; oral
With `CCC(S)SC(S)CC` (stereo not drawn) [1,1'-Sulfanediyldi(propane-1-thiol)] the NOEL was 0.7 mg/kg-day. Work on `CC(S)C(C)S` (stereo not drawn) [2,3-Butanedithiol] yielded an NOEL of 0.7 mg/kg-day.

Test system: not given
Details: subchronic; duration: 90 days
`C1CCC(SSC2CCCCC2)CC1` [Dicyclohexyl disulfide] gave an NOAEL of 0.23 mg/kg-day.
